Measured values published in ChEMBL document CHEMBL4420076, “Amylin and calcitonin receptor agonist” (2017).
Numbered stars: 1 amine (or outer) side, 2 acyl side, 3 side chain; on linkers, the order of the positions; unused ones are H or OH. Peptide text beside a SMILES is read from it. * marks the point of attachment. C20 diacid = O=C(O)CCCCCCCCCCCCCCCCCCC(=O)*; C18 diacid = O=C(O)CCCCCCCCCCCCCCCCC(=O)*; γGlu = O=C(O)[C@H](CCC(=O)[*:2])N[*:1]

How the values were obtained:
[1] = target: T1, Amylin receptor AMY3; CALCR/RAMP3 (Homo sapiens, UniProt O60896+P30988); experiment: Agonist activity at human amylin receptor expressed in BHK570 cells co-expressing RAMP3 assessed as increase in intracellular cAMP concentration incubated for 3 hrs in absence of albumin by CRE luciferase reporter gene assay; assay type: functional, cell-based
T1 sequence (P30988 whole entry): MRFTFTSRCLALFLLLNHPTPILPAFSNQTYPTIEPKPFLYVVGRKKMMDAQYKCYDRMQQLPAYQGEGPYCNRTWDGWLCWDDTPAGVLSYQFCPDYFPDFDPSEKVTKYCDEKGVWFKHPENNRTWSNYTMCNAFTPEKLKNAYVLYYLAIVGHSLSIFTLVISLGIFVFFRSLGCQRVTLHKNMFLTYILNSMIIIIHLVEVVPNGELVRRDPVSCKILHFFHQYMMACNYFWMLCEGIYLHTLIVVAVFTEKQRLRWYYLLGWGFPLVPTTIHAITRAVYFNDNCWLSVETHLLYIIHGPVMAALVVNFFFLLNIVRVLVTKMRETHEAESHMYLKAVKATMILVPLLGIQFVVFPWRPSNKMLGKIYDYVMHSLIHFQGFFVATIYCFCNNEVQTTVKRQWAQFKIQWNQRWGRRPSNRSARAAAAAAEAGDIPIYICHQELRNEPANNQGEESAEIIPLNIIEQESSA
T1 sequence (O60896 whole entry): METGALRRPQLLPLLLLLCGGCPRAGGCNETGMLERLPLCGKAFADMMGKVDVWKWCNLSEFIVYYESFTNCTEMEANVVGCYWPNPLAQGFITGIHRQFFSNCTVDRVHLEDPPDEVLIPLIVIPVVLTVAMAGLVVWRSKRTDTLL

Calcitonin receptor [2] = target: T2, Calcitonin receptor (Homo sapiens, UniProt P30988); experiment: Agonist activity at human calcitonin receptor expressed in BHK570 cells assessed as increase in intracellular cAMP concentration incubated for 3 hrs in absence of albumin by CRE luciferase reporter gene assay; assay type: functional, cell-based
T2 sequence (P30988 whole entry): T1 sequence (P30988 whole entry)

[3] = target: T1, Amylin receptor AMY3; CALCR/RAMP3; experiment: Agonist activity at human amylin receptor expressed in BHK570 cells co-expressing RAMP3 assessed as increase in intracellular cAMP concentration incubated for 3 hrs in presence of 10% FBS by CRE luciferase reporter gene assay; assay type: functional, cell-based
[4] = Solubility in 100 mM glycylglycine buffer at pH 3.0 incubated for 18 hrs by UPLC analysis; assay type: physicochemical
[5] = Solubility in 100 mM glycylglycine buffer at pH 4.0 incubated for 18 hrs by UPLC analysis; assay type: physicochemical
[6] = Solubility in 100 mM bistrispropane buffer at pH 6.0 incubated for 18 hrs by UPLC analysis; assay type: physicochemical
[7] = Solubility in 100 mM glycylglycine buffer at pH 5.0 incubated for 18 hrs by UPLC analysis; assay type: physicochemical
[8] = Solubility in 100 mM bistrispropane buffer at pH 6.5 incubated for 18 hrs by UPLC analysis; assay type: physicochemical
[9] = Solubility in 100 mM bistrispropane buffer at pH 7.0 incubated for 18 hrs by UPLC analysis; assay type: physicochemical
[10] = Solubility in 100 mM bistrispropane buffer at pH 7.5 incubated for 18 hrs by UPLC analysis; assay type: physicochemical
[11] = Solubility in 100 mM bistrispropane buffer at pH 8.0 incubated for 18 hrs by UPLC analysis; assay type: physicochemical
[12] = target: T1, Amylin receptor AMY3; CALCR/RAMP3; experiment: Displacement of [125I]-labeled rat amylin from human amylin receptor expressed in BHK tkts13 whole cells co-expressing RAMP3 incubated for 60 mins by scintillation proximity assay; assay type: cell-based
Calcitonin receptor [13] = target: T2, Calcitonin receptor; experiment: Agonist activity at human calcitonin receptor expressed in BHK570 cells assessed as increase in intracellular cAMP concentration incubated for 3 hrs in presence of 10% FBS by CRE luciferase reporter gene assay; assay type: functional, cell-based

Structure (SMILES)	EC50 [1]	EC50 (Calcitonin receptor [2])	EC50 [3]	solubility at 18 h [4]	solubility at 18 h [5]	solubility at 18 h [6]	solubility at 18 h [7]	solubility at 18 h [8]	solubility at 18 h [9]	solubility at 18 h [10]	solubility at 18 h [11]	IC50 [12]	EC50 (Calcitonin receptor [13])
CC(C)C[C@H](NC(=O)[C@H](CCC(=O)O)NC(=O)[C@H](Cc1cnc[nH]1)NC(=O)[C@H](CC(C)C)NC(=O)[C@H](CCC(=O)O)NC(=O)[C@H](C)NC(=O)[C@H](CO)NC(=O)[C@H](CC(C)C)NC(=O)[C@H](CCCNC(=N)N)NC(=O)CNC(=O)[C@@H](NC(=O)[C@@H](NC(=O)[C@H](C)NC(=O)[C@@H](NC(=O)[C@H](CO)NC(=O)[C@@H](NC(=O)[C@H](CCC(=O)O)NC(=O)[C@H](CO)NC(=O)[C@H](C)NC(=O)CC[C@H](NC(=O)CCCCCCCCCCCCCCCCC(=O)O)C(=O)O)C(C)C)[C@@H](C)O)C(C)C)C(C)C)C(=O)N[C@@H](C)C(=O)N[C@H](C(=O)N[C@@H](CC(C)C)C(=O)N1CCC[C@H]1C(=O)N[C@@H](CCCNC(=N)N)C(=O)N[C@H](C(=O)N[C@@H](CCC(=O)O)C(=O)N[C@H](C(=O)NCC(=O)N[C@@H](CO)C(=O)NCC(=O)N[C@@H](CO)C(=O)N1CCC[C@H]1C(N)=O)[C@@H](C)O)[C@@H](C)O)[C@@H](C)O ({C18 diacid-γGlu}-ASEVSTAVVGRLSAELHELATLPRTETGSGSP-NH2)		0.008 nM	0.038 nM	≥ 200 µM		≥ 200 µM		≥ 200 µM	≥ 200 µM	≥ 200 µM	≥ 200 µM	1.17 nM	0.011 nM
CC(C)C[C@H](NC(=O)[C@H](C)NC(=O)[C@H](C)NC(=O)[C@@H](NC(=O)[C@H](CO)NC(=O)[C@H](CC(C)C)NC(=O)[C@H](CCC(=O)O)NC(=O)[C@H](CO)NC(=O)[C@H](C)NC(=O)CC[C@H](NC(=O)CCCCCCCCCCCCCCCCCCC(=O)O)C(=O)O)[C@@H](C)O)C(=O)NCC(=O)N[C@@H](CCCNC(=N)N)C(=O)N[C@@H](CC(C)C)C(=O)N[C@@H](CO)C(=O)N[C@@H](C)C(=O)N[C@@H](CCC(=O)O)C(=O)N[C@@H](CC(C)C)C(=O)N[C@@H](Cc1cnc[nH]1)C(=O)N[C@@H](CCC(=O)O)C(=O)N[C@@H](CC(C)C)C(=O)N[C@@H](CO)C(=O)N[C@H](C(=O)N[C@@H](Cc1ccc(O)cc1)C(=O)N1CCC[C@H]1C(=O)N[C@@H](CCCNC(=N)N)C(=O)N[C@H](C(=O)N[C@@H](CCC(=O)O)C(=O)N[C@H](C(=O)NCC(=O)N[C@@H](CO)C(=O)NCC(=O)N[C@@H](CO)C(=O)N[C@@H](Cc1ccc(O)cc1)C(N)=O)[C@@H](C)O)[C@@H](C)O)[C@@H](C)O ({C20 diacid-γGlu}-ASELSTAALGRLSAELHELSTYPRTETGSGSY-NH2)	0.05 nM	0.034 nM	0.064 nM	≥ 200 µM	≥ 200 µM	≥ 200 µM		≥ 200 µM	≥ 200 µM	≥ 200 µM	≥ 200 µM	0.186 nM	
CC(C)C[C@H](NC(=O)CNC(=O)[C@H](CO)NC(=O)[C@H](C)NC(=O)CC[C@H](NC(=O)CCCCCCCCCCCCCCCCCCC(=O)O)C(=O)O)C(=O)N[C@@H](CO)C(=O)N[C@H](C(=O)N[C@@H](C)C(=O)N[C@H](C(=O)N[C@@H](CC(C)C)C(=O)NCC(=O)N[C@@H](CCCNC(=N)N)C(=O)N[C@@H](CC(C)C)C(=O)N[C@@H](CO)C(=O)N[C@@H](CCC(N)=O)C(=O)N[C@@H](CCC(=O)O)C(=O)N[C@@H](CC(C)C)C(=O)N[C@@H](Cc1cnc[nH]1)C(=O)N[C@@H](CCC(=O)O)C(=O)N[C@@H](CC(C)C)C(=O)N[C@@H](CCC(N)=O)C(=O)N[C@H](C(=O)N[C@@H](Cc1ccc(O)cc1)C(=O)N1CCC[C@H]1C(=O)N[C@@H](CCCNC(=N)N)C(=O)N[C@H](C(=O)N[C@@H](CCC(=O)O)C(=O)N[C@H](C(=O)NCC(=O)N[C@@H](CO)C(=O)N[C@@H](C)C(=O)N[C@H](C(=O)N[C@@H](Cc1ccc(O)cc1)C(N)=O)[C@@H](C)O)[C@@H](C)O)[C@@H](C)O)[C@@H](C)O)C(C)C)[C@@H](C)O ({C20 diacid-γGlu}-ASGLSTAVLGRLSQELHELQTYPRTETGSATY-NH2)		0.052 nM	0.077 nM	≥ 200 µM	≥ 200 µM	≥ 200 µM		≥ 200 µM	≥ 200 µM	≥ 200 µM	≥ 200 µM	0.244 nM	0.037 nM
CC(C)C[C@H](NC(=O)CC[C@H](NC(=O)CCCCCCCCCCCCCCCCCCC(=O)O)C(=O)O)C(=O)N[C@@H](CO)C(=O)N[C@@H](CCC(N)=O)C(=O)N[C@@H](CC(C)C)C(=O)N[C@@H](CO)C(=O)N[C@H](C(=O)N[C@@H](CC(C)C)C(=O)N[C@H](C(=O)N[C@@H](CC(C)C)C(=O)NCC(=O)N[C@@H](CCCNC(=N)N)C(=O)N[C@@H](CC(C)C)C(=O)N[C@@H](CO)C(=O)N[C@@H](CCC(N)=O)C(=O)N[C@@H](CCCNC(=N)N)C(=O)N[C@@H](CC(C)C)C(=O)N[C@@H](Cc1cnc[nH]1)C(=O)N[C@@H](CCCNC(=N)N)C(=O)N[C@@H](CC(C)C)C(=O)N[C@@H](CCC(N)=O)C(=O)N[C@H](C(=O)N[C@@H](Cc1ccc(O)cc1)C(=O)N1CCC[C@H]1C(=O)N[C@@H](CCCNC(=N)N)C(=O)N[C@H](C(=O)N[C@@H](CCC(N)=O)C(=O)N[C@H](C(=O)NCC(=O)N[C@@H](CO)C(=O)N[C@@H](CCC(N)=O)C(=O)N[C@H](C(=O)N[C@@H](Cc1ccc(O)cc1)C(N)=O)[C@@H](C)O)[C@@H](C)O)[C@@H](C)O)[C@@H](C)O)C(C)C)[C@@H](C)O ({C20 diacid-γGlu}-LSQLSTLVLGRLSQRLHRLQTYPRTQTGSQTY-NH2)	0.01 nM	0.012 nM	0.044 nM									10.7 nM	0.05 nM

The remaining compounds from weak to strong by EC50 (Calcitonin receptor [2]), led by results:

EC50 [1]	EC50 (Calcitonin receptor [2])	EC50 [3]	solubility at 18 h [4]	solubility at 18 h [5]	solubility at 18 h [6]	solubility at 18 h [7]	solubility at 18 h [8]	solubility at 18 h [9]	solubility at 18 h [10]	solubility at 18 h [11]	IC50 [12]	EC50 (Calcitonin receptor [13])	Structure (SMILES)
0.08 nM	0.019 nM	0.413 nM	≥ 200 µM	≥ 200 µM	≥ 200 µM	≥ 200 µM	≥ 200 µM	≥ 200 µM	≥ 200 µM	≥ 200 µM	22 nM		CC(C)C[C@H](NC(=O)[C@H](C)NC(=O)[C@H](C)NC(=O)[C@@H](NC(=O)[C@H](CO)NC(=O)[C@H](CC(C)C)NC(=O)[C@H](CCC(=O)O)NC(=O)[C@H](CO)NC(=O)[C@H](C)NC(=O)CC[C@H](NC(=O)CCCCCCCCCCCCCCCCC(=O)O)C(=O)O)[C@@H](C)O)C(=O)NCC(=O)N[C@@H](CCCNC(=N)N)C(=O)N[C@@H](CC(C)C)C(=O)N[C@@H](CO)C(=O)N[C@@H](C)C(=O)N[C@@H](CCC(=O)O)C(=O)N[C@@H](CC(C)C)C(=O)N[C@@H](Cc1cnc[nH]1)C(=O)N[C@@H](CCC(=O)O)C(=O)N[C@@H](CC(C)C)C(=O)N[C@@H](C)C(=O)N[C@H](C(=O)N[C@@H](CC(C)C)C(=O)N1CCC[C@H]1C(=O)N[C@@H](CCCNC(=N)N)C(=O)N[C@H](C(=O)N[C@@H](CCC(=O)O)C(=O)N[C@H](C(=O)NCC(=O)N[C@@H](CO)C(=O)NCC(=O)N1CCC[C@H]1C(=O)N1CCC[C@H]1C(N)=O)[C@@H](C)O)[C@@H](C)O)[C@@H](C)O ({C18 diacid-γGlu}-ASELSTAALGRLSAELHELATLPRTETGSGPP-NH2)
0.009 nM	0.004 nM	0.026 nM	≥ 200 µM	≥ 200 µM	≥ 200 µM	≥ 200 µM	≥ 200 µM	≥ 200 µM	≥ 200 µM	≥ 200 µM	0.83 nM		CC(C)C[C@H](NC(=O)[C@H](C)NC(=O)[C@H](C)NC(=O)[C@@H](NC(=O)[C@H](CO)NC(=O)[C@H](CC(C)C)NC(=O)[C@H](CCC(=O)O)NC(=O)[C@H](CO)NC(=O)[C@H](C)NC(=O)CC[C@H](NC(=O)CCCCCCCCCCCCCCCCC(=O)O)C(=O)O)[C@@H](C)O)C(=O)NCC(=O)N[C@@H](CCCNC(=N)N)C(=O)N[C@@H](CC(C)C)C(=O)N[C@@H](CO)C(=O)N[C@@H](C)C(=O)N[C@@H](CCC(=O)O)C(=O)N[C@@H](CC(C)C)C(=O)N[C@@H](Cc1cnc[nH]1)C(=O)N[C@@H](CCC(=O)O)C(=O)N[C@@H](CC(C)C)C(=O)N[C@@H](C)C(=O)N[C@H](C(=O)N[C@@H](CC(C)C)C(=O)N1CCC[C@H]1C(=O)N[C@@H](CCCNC(=N)N)C(=O)N[C@H](C(=O)N[C@@H](CCC(=O)O)C(=O)N[C@H](C(=O)NCC(=O)N[C@@H](CO)C(=O)N[C@@H](CCC(=O)O)C(=O)N[C@@H](CO)C(=O)N1CCC[C@H]1C(N)=O)[C@@H](C)O)[C@@H](C)O)[C@@H](C)O ({C18 diacid-γGlu}-ASELSTAALGRLSAELHELATLPRTETGSESP-NH2)
